Measured values as given in patent US8563714B2, “Bridged spiro [2.4] heptane derivatives as ALX receptor and/or FPRL2 agonists” (Actelion Pharmaceuticals Ltd., priority 2009, dated 2013).

What was measured:
human ALX receptor = molecular target: T1, human ALX receptor (Homo sapiens, UniProt P25090); assay: Intracellular calcium measurements (FLIPR), agonistic activity in HEK293-hALXR-Gα16 cells; type: cell-based; conditions: Fluo-4 calcium FLIPR, normalized to WKYMVm 10 nM
T1 construct: expressed in transfected cells; host or cells: HEK293 (HEK293-hALXR-Gα16)
T1 sequence (P25090 1-351): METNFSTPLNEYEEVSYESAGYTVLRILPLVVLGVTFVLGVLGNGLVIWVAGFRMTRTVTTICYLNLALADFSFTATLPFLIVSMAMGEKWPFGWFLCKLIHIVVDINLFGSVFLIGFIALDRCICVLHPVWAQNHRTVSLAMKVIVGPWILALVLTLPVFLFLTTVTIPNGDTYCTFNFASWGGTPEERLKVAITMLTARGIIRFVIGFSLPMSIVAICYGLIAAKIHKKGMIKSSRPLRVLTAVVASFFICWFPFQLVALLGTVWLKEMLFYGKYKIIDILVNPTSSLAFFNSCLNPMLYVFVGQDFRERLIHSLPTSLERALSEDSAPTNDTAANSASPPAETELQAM
Summary of the method: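 Agonist-induced calcium flux was recorded by FLIPR (488/540 nm) in HEK293-hALXR-Gα16 cells pre-loaded with Fluo-4 AM (1 μM, 60 min, 37°C). Peak signal above baseline, after subtracting buffer addition, was expressed relative to WKYMVm at 10 nM final.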

human FPRL2 = molecular target: T2, human FPRL2 (Homo sapiens, UniProt P25089); assay: Intracellular calcium measurements (FLIPR), agonistic activity in HEK293-hFPRL2-Gα16 cells; type: cell-based; conditions: Fluo-4 calcium FLIPR, normalized to GLY14-Humanin 100 nM
T2 construct: expressed in transfected cells; host or cells: HEK293 (HEK293-hFPRL2-Gα16)
T2 sequence (P25089 1-353): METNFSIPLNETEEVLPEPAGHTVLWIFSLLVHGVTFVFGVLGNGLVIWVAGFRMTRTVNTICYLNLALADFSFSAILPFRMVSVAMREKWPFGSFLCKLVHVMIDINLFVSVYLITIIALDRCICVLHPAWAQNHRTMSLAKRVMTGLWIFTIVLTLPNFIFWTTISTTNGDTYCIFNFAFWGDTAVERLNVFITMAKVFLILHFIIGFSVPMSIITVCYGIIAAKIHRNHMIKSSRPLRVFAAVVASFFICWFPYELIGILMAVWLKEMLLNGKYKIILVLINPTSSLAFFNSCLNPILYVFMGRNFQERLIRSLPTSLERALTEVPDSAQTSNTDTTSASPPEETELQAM
Summary of the method: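 Peak values after baseline subtraction are expressed relative to 100 nM Gly14-Humanin; compounds diluted in assay buffer from 10 mM DMSO stocks.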

EC50 (human ALX receptor) [nM] | EC50 (human FPRL2) [nM] | SMILES
88 | 4710 | COC(=O)CCCC(=O)NC[C@H]1[C@H](C(=O)Nc2ccc(Br)cc2)[C@@H]2C=C[C@H]1C21CC1 (racemic) [Example 166, (5R*)—N^5-(4-Bromo-phenyl)-(6R*)-6-{[(4-methoxycarbonyl-butanoyl)-amino]-methyl}-(4S*,7R*)-[4,7-ethenylene-spiro[2.4]heptane]-5-carboxamide]
103 | 3690 | CCCCC(=O)NC[C@H]1[C@H](C(=O)Nc2ccc(Br)cc2)[C@@H]2C=C[C@H]1C21CC1 (racemic) [Example 167, (5R*)—N^5-(4-Bromo-phenyl)-(6R*)-6-(pentanoylamino-methyl)-(4S*,7R*)-[4,7-ethenylene-spiro[2.4]heptane]-5-carboxamide]
71 | 862 | Cc1nc(CC(=O)NC[C@H]2[C@H](C(=O)Nc3ccc(Br)cc3)[C@@H]3C=C[C@H]2C32CC2)c(C)s1 (racemic) [Example 168, (5R*)—N^5-(4-Bromo-phenyl)-(6R*)-6-[(2-(2,5-dimethyl-thiazol-4-yl)-acetylamino)-methyl]-(4S*,7R*)-[4,7-ethenylene-spiro[2.4]heptane]-5-carboxamide]
112 | 1790 | O=C(NC[C@H]1[C@H](C(=O)Nc2ccc(Br)cc2)[C@@H]2C=C[C@H]1C21CC1)c1ccnn1-c1ccccc1 (racemic) [Example 169, (5R*)—N^5-(4-Bromo-phenyl)-(6R*)-6-{[(1-phenyl-1H-pyrazole-5-carbonyl)-amino]-methyl}-(4S*,7R*)-[4,7-ethenylene-spiro[2.4]heptane]-5-carboxamide]
114 | > 25000 | NC(=O)CCC(=O)NC[C@H]1[C@H](C(=O)Nc2ccc(Br)cc2)[C@@H]2C=C[C@H]1C21CC1 (racemic) [Example 170, (5R*)—N^5-(4-Bromo-phenyl)-(6R*)-6-{[(3-aminocarbonyl-propionyl)-amino]-methyl}-(4S*,7R*)-[4,7-ethenylene-spiro[2.4]heptane]-5-carboxamide]
118 | 3220 | Cc1ccncc1C(=O)NC[C@H]1[C@H](C(=O)Nc2ccc(Br)cc2)[C@@H]2C=C[C@H]1C21CC1 (racemic) [Example 171, (5R*)—N^5-(4-Bromo-phenyl)-(6R*)-6-{[(4-methyl-pyridine-3-carbonyl)-amino]-methyl}-(4S*,7R*)-[4,7-ethenylene-spiro[2.4]heptane]-5-carboxamide]
125 | 4610 | CC(C)C(=O)NC[C@H]1[C@H](C(=O)Nc2ccc(Br)cc2)[C@@H]2C=C[C@H]1C21CC1 (racemic) [Example 172, (5R*)—N^5-(4-Bromo-phenyl)-(6R*)-6-[(isobutyrylamino)-methyl]-(4S*,7R*)-[4,7-ethenylene-spiro[2.4]heptane]-5-carboxamide]
131 | 1820 | CCN1CCC(C(=O)NC[C@H]2[C@H](C(=O)Nc3ccc(Br)cc3)[C@@H]3C=C[C@H]2C32CC2)CC1 (racemic) [Example 173, (5R*)—N^5-(4-Bromo-phenyl)-(6R*)-6-{[(N-ethyl-piperidine-4-carbonyl)-amino]-methyl}-(4S*,7R*)-[4,7-ethenylene-spiro[2.4]heptane]-5-carboxamide]
136 | 4810 | O=C(CCc1cccnc1)NC[C@H]1[C@H](C(=O)Nc2ccc(Br)cc2)[C@@H]2C=C[C@H]1C21CC1 (racemic) [Example 174, (5R*)—N^5-(4-Bromo-phenyl)-(6R*)-6-[(3-pyridin-3-yl-propionylamino)-methyl]-(4S*,7R*)-[4,7-ethenylene-spiro[2.4]heptane]-5-carboxamide]
155 | 7210 | COCCC(=O)N(C)C[C@H]1[C@H](C(=O)Nc2ccc(Br)cc2)[C@@H]2C=C[C@H]1C21CC1 (racemic) [Example 175, (5R*)—N^5-(4-Bromo-phenyl)-(6R*)-6-{[N-(3-methoxy-propionyl)-N-methyl-amino]-methyl}-(4S*,7R*)-[4,7-ethenylene-spiro[2.4]heptane]-5-carboxamide]
158 | 2230 | O=C(NC[C@H]1[C@H](C(=O)Nc2ccc(Br)cc2)[C@@H]2C=C[C@H]1C21CC1)c1cccc(F)c1Cl (racemic) [Example 176, (5R*)—N^5-(4-Bromo-phenyl)-(6R*)-6-{[(2-chloro-3-fluoro-phenyl-carbonyl)-amino]-methyl}-(4S*,7R*)-[4,7-ethenylene-spiro[2.4]heptane]-5-carboxamide]
160 | 446 | O=C(CCCN1CCCC1)NC[C@H]1[C@H](C(=O)Nc2ccc(Br)cc2)[C@@H]2C=C[C@H]1C21CC1 (racemic) [Example 177, (5R*)—N^5-(4-Bromo-phenyl)-(6R*)-6-[(4-pyrrolidin-1-yl-butanoylamino)-methyl]-(4S*,7R*)-[4,7-ethenylene-spiro[2.4]heptane]-5-carboxamide]
115 | 4070 | Cc1cc(C(=O)NC[C@H]2[C@H](C(=O)Nc3ccc(Br)cc3)[C@@H]3C=C[C@H]2C32CC2)nn1C (racemic) [Example 178, (5R*)—N^5-(4-Bromo-phenyl)-(6R*)-6-{[(1,5-dimethyl-1H-pyrazole-3-carbonyl)-amino]-methyl}-(4S*,7R*)-[4,7-ethenylene-spiro[2.4]heptane]-5-carboxamide]
200 | 1380 | O=C(NC[C@H]1[C@H](C(=O)Nc2ccc(Br)cc2)[C@@H]2C=C[C@H]1C21CC1)C1CCCC1 (racemic) [Example 179, (5R*)—N^5-(4-Bromo-phenyl)-(6R*)-6-{[(cyclopentyl-carbonyl)-amino]-methyl}-(4S*,7R*)-[4,7-ethenylene-spiro[2.4]heptane]-5-carboxamide]
252 | 888 | Cc1nc(CC(=O)NC[C@H]2[C@H](C(=O)Nc3ccc(Br)cc3)[C@@H]3C=C[C@H]2C32CC2)cs1 (racemic) [Example 180, (5R*)—N^5-(4-Bromo-phenyl)-(6R*)-6-[(2-(2-methyl-thiazol-4-yl)-acetylamino)-methyl]-(4S*,7R*)-[4,7-ethenylene-spiro[2.4]heptane]-5-carboxamide]
265 | 2050 | CN(C)CC(=O)NC[C@H]1[C@H](C(=O)Nc2ccc(Br)cc2)[C@@H]2C=C[C@H]1C21CC1 (racemic) [Example 181, (5R*)—N^5-(4-Bromo-phenyl)-(6R*)-6-[(2-(N,N-dimethyl-amino)-acetylamino)-methyl]-(4S*,7R*)-[4,7-ethenylene-spiro[2.4]heptane]-5-carboxamide]
298 | 2020 | CN(C[C@H]1[C@H](C(=O)Nc2ccc(Br)cc2)[C@@H]2C=C[C@H]1C21CC1)C(=O)Cc1ccccc1Cl (racemic) [Example 182, (5R*)—N^5-(4-Bromo-phenyl)-(6R*)-6-{[N-(2-(2-chloro-phenyl)-acetyl)-N-methyl-amino]-methyl}-(4S*,7R*)-[4,7-ethenylene-spiro[2.4]heptane]-5-carboxamide]
303 | 8900 | Cc1cc(C(=O)N(C)C[C@H]2[C@H](C(=O)Nc3ccc(Br)cc3)[C@@H]3C=C[C@H]2C32CC2)nn1C (racemic) [Example 183, (5R*)—N^5-(4-Bromo-phenyl)-(6R*)-6-{[N-(1,5-dimethyl-1H-pyrazole-3-carbonyl)-N-methyl-amino]-methyl}-(4S*,7R*)-[4,7-ethenylene-spiro[2.4]heptane]-5-carboxamide]
315 | > 14500 | O=C(CC1CC1)NC[C@H]1[C@H](C(=O)Nc2ccc(Br)cc2)[C@@H]2C=C[C@H]1C21CC1 (racemic) [Example 184, (5R*)—N^5-(4-Bromo-phenyl)-(6R*)-6-[(2-cyclopropyl-acetylamino)-methyl]-(4S*,7R*)-[4,7-ethenylene-spiro[2.4]heptane]-5-carboxamide]
336 | 709 | Cn1c(CCC(=O)NC[C@H]2[C@H](C(=O)Nc3ccc(Br)cc3)[C@@H]3C=C[C@H]2C32CC2)nc2ccccc21 (racemic) [Example 185, (5R*)—N^5-(4-Bromo-phenyl)-(6R*)-6-[(3-(1-methyl-1H-benzoimidazol-2-yl)-propionylamino)-methyl]-(4S*,7R*)-[4,7-ethenylene-spiro[2.4]heptane]-5-carboxamide]
